US9499519B2, “Fused pyrimidine compounds and use thereof” (Medivation Technologies, Inc., priority 2012, dated 2016)

Key:
[1] = tested on: Akt phosphorylation induced by IGF-1R; test: Western blot analysis of Akt phosphorylation induced by IGF-1 in HT-29 cells; type: cell-based, Human; details: for Levels of phosphorylated AKT in treated cells (pAKT/actin): HT-29 cells, IGF-1; for p-AKT relative to levels with 0.1 nM compound: Table B2 lower part; for Normalized phosphorylated AKT (relative to actin) levels relative to 0.1 nM compound treatment: Table B2 upper part
Method: Inhibition of Akt phosphorylation induced by IGF-1R was studied by western blot analysis. Human colon carcinoma HT-29 cells were seeded at a density of 8×10^4 cells/well in a 24-well plate and grown in DME/F12 media containing 10% FBS for 24 h. The cells were then depleted of serum by incubation in DME/F12 media lacking FBS for 24 h. […] […] Lysed cells were centrifuged at 13,000 rpm for 15 min and the protein concentration soluble fraction (supernatant) of each sample was determined using a BCA protein assay (Pierce).

IR = molecular target: T1, IR (Homo sapiens, UniProt P06213); test: In vitro IR enzymatic assay (ADP-Glo kinase assay); type: biochemical; details: activated IR, 30 nM; for % Inh @ 30 nM (N1) / % Inh @ 30 nM (N2): 0.03 µM; for % Inh @ 30 nM Avg: average
T1 construct: purchased Millipore 14-803
T1 sequence (P06213 28-1382): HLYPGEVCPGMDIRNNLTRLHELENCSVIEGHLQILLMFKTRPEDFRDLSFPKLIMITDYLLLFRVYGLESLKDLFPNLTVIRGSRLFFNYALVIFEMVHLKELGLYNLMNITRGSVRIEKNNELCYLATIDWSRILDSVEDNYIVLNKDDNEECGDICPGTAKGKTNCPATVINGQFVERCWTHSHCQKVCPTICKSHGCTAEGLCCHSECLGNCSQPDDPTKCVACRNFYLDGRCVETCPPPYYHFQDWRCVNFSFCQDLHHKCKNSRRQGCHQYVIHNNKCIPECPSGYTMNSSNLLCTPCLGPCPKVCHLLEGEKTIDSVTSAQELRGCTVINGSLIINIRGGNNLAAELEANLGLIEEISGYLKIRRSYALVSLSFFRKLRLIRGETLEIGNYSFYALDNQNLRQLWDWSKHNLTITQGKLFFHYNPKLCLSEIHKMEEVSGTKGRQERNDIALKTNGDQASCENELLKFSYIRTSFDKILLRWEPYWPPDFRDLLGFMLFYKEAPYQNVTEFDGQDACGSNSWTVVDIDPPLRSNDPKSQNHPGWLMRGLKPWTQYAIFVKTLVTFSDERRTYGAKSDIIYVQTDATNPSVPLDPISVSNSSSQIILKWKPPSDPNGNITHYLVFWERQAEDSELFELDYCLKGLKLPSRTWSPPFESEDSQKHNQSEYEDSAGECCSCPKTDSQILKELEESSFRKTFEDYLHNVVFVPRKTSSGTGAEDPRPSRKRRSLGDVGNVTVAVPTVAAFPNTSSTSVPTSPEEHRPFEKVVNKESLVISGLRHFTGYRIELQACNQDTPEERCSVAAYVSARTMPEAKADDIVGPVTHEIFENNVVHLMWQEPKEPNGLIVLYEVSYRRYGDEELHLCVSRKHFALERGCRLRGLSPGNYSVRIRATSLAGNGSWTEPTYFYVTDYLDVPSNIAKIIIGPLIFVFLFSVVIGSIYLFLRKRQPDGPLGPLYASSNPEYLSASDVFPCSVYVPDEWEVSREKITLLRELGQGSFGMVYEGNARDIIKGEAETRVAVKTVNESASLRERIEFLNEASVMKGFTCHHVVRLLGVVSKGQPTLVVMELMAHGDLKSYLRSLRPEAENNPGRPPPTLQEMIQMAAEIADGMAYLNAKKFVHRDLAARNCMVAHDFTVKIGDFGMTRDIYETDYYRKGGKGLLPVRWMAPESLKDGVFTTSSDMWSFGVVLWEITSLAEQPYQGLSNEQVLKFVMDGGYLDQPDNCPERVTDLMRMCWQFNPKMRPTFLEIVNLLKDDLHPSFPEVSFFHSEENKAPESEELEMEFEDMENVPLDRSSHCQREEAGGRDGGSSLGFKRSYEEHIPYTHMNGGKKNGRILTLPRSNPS
Method: (§1) IC50 values of the compounds of the invention against IGF-1R and IR were measured in vitro using an ADP-Glo kinase assay Kit (Promega). […] Kinase reactions in both assays were conducted at 30° C. for 20 min with increasing concentrations of compounds of the invention.
Additional compounds of the invention were screened against activated IR.

IGF-1R = molecular target: T2, IGF-1R (Homo sapiens, UniProt P08069); test: In vitro IGF-1R enzymatic assay (ADP-Glo kinase assay); type: biochemical; details: activated IGF-1R, 30 nM, average; for inhibition at 0.03 µM: read-out: % Inh @ 30 nM Avg
T2 construct: purchased Millipore 14-802
T2 sequence (P08069 31-1367): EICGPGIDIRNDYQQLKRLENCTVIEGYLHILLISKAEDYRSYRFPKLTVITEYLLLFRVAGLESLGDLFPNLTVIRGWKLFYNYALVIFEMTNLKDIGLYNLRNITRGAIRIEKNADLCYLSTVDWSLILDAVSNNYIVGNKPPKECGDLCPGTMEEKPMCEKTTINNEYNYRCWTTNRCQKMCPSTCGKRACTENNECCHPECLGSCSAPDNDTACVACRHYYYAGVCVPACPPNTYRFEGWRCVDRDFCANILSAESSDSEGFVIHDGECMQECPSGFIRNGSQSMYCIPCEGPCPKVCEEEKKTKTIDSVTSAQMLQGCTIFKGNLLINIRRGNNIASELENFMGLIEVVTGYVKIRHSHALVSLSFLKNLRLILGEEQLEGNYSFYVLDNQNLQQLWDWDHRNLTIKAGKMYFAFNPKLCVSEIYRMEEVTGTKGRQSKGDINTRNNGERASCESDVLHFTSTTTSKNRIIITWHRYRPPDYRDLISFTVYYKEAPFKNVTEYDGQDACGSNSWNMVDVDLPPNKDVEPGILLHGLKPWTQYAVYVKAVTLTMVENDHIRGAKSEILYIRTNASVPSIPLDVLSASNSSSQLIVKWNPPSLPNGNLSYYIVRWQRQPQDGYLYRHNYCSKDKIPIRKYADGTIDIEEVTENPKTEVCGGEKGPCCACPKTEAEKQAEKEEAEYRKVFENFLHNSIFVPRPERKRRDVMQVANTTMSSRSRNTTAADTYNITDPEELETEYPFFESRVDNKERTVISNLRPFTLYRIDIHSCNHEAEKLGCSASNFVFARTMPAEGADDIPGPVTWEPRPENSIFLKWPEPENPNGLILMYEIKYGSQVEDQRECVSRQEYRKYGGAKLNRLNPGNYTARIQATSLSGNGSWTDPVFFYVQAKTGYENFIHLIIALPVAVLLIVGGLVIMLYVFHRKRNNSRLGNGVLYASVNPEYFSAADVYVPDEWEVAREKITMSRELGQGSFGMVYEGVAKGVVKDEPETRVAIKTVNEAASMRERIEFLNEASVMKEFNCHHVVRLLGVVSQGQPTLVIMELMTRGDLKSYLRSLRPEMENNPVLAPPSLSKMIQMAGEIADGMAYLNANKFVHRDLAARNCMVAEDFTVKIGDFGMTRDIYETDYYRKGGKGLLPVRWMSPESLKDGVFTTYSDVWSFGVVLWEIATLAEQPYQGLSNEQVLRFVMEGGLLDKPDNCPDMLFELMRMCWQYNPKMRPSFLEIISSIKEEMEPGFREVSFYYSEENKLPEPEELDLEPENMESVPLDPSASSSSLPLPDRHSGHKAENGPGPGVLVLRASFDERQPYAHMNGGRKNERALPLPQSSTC
Method: as §1
Additional compounds of the invention were screened against activated IGF-1R.

SMILES | % Inh @ 30 nM (N1) (IR) [%] | % Inh @ 30 nM (N2) (IR) [%] | % Inh @ 30 nM Avg (IR) [%] | inhibition at 0.03 µM (IGF-1R) [%] | % Inh @ 30 nM Avg (IGF-1R) [%] | Levels of phosphorylated AKT in treated cells (pAKT/actin) ([1]; 0.1 nM compound) | p-AKT relative to levels with 0.1 nM compound ([1]; 0.1 nM) | Normalized phosphorylated AKT (relative to actin) levels relative to 0.1 nM compound treatment ([1]; 0.1 nM) | Levels of phosphorylated AKT in treated cells (pAKT/actin) ([1]; 1 nM compound) | p-AKT relative to levels with 0.1 nM compound ([1]; 1 nM) | Normalized phosphorylated AKT (relative to actin) levels relative to 0.1 nM compound treatment ([1]; 1 nM) | Levels of phosphorylated AKT in treated cells (pAKT/actin) ([1]; 10 nM compound) | p-AKT relative to levels with 0.1 nM compound ([1]; 10 nM) | Normalized phosphorylated AKT (relative to actin) levels relative to 0.1 nM compound treatment ([1]; 10 nM) | Levels of phosphorylated AKT in treated cells (pAKT/actin) ([1]; 100 nM compound) | p-AKT relative to levels with 0.1 nM compound ([1]; 100 nM) | Normalized phosphorylated AKT (relative to actin) levels relative to 0.1 nM compound treatment ([1]; 100 nM)
O=C(Nc1cncnc1)C1CCCN1c1nc2c(c(Nc3cc(C4CC4)[nH]n3)n1)CCC2 (racemic) [Compound 7, 1-(4-(3-cyclopropyl-1H-pyrazol-5-ylamino)-6,7-dihydro-5H-cyclopenta[d]pyrimidin-2-yl)-N-(pyrimidin-5-yl)pyrrolidine-2-carboxamide] |  |  |  |  |  | 1.45 | 1.0 | 1.0 | 2.08 | 1.4 | 1.4 | 1.09 | 0.7 | 0.7 | 1.20 | 0.8 | 0.8
O=C(Nc1ccc(F)nc1)C1CC(O)CN1c1nc2c(c(Nc3cc(C4CC4)[nH]n3)n1)CCC2 (racemic) [Compound 10b, 1-(4-(5-cyclopropyl-1H-pyrazol-3-ylamino)-6,7-dihydro-5H-cyclopenta[d]pyrimidin-2-yl)-N-(6-fluoropyridin-3-yl)-4-hydroxypyrrolidine-2-carboxamide] |  |  |  |  | −11 | 2.21 | 1.0 | 1.0 | 2.75 | 1.2 | 1.2 | 1.71 | 0.8 | 0.8 | 1.66 | 0.8 | 0.8
O=C(Nc1ccc(F)nc1)C1CCCN1c1nc2c(c(Nc3cc(C4CCCC4)[nH]n3)n1)CCC2 (racemic) [Compound 4, 1-(4-(3-cyclopentyl-1H-pyrazol-5-ylamino)-6,7-dihydro-5H-cyclopenta[d]pyrimidin-2-yl)-N-(6-fluoropyridin-3-yl)pyrrolidine-2-carboxamide] |  |  |  |  |  | 1.92 | 1.0 | 1.0 | 1.59 | 0.8 | 0.8 | 1.01 | 0.5 | 0.5 | 0.06 | 0.0 | 0.0
O=C(Nc1ccc(F)nc1)C1CC(O)CN1c1nc2c(c(Nc3cc(C4CC4)[nH]n3)n1)CCC2 (racemic) [Compound 10c, 1-(4-(5-cyclopropyl-1H-pyrazol-3-ylamino)-6,7-dihydro-5H-cyclopenta[d]pyrimidin-2-yl)-N-(6-fluoropyridin-3-yl)-4-hydroxypyrrolidine-2-carboxamide] |  |  |  |  | 15 |  |  |  |  |  |  |  |  |  |  |  | 
O=C(Nc1ccc(F)nc1)C1CCCN1c1nc2c(c(Nc3cc(C4CC4)[nH]n3)n1)CCCC2 (single isomer, unassigned) [Compound 14b, 1-(4-(5-cyclopropyl-1H-pyrazol-3-ylamino)-5,6,7,8-tetrahydroquinazolin-2-yl)-N-(6-fluoropyridin-3-yl)pyrrolidine-2-carboxamide] |  |  |  |  |  | 0.51 | 1.0 | 1.0 | 0.49 | 0.9 | 0.9 | 0.02 | 0.0 | 0.0 | 0.00 | 0.0 | 0.0

More lines, main results first:

% Inh @ 30 nM (N1) (IR) [%] | % Inh @ 30 nM (N2) (IR) [%] | % Inh @ 30 nM Avg (IR) [%] | inhibition at 0.03 µM (IGF-1R) [%] | % Inh @ 30 nM Avg (IGF-1R) [%] | SMILES | Levels of phosphorylated AKT in treated cells (pAKT/actin) ([1]; 0.1 nM compound) | p-AKT relative to levels with 0.1 nM compound ([1]; 0.1 nM) | Normalized phosphorylated AKT (relative to actin) levels relative to 0.1 nM compound treatment ([1]; 0.1 nM) | Levels of phosphorylated AKT in treated cells (pAKT/actin) ([1]; 1 nM compound) | p-AKT relative to levels with 0.1 nM compound ([1]; 1 nM) | Normalized phosphorylated AKT (relative to actin) levels relative to 0.1 nM compound treatment ([1]; 1 nM) | Levels of phosphorylated AKT in treated cells (pAKT/actin) ([1]; 10 nM compound) | p-AKT relative to levels with 0.1 nM compound ([1]; 10 nM) | Normalized phosphorylated AKT (relative to actin) levels relative to 0.1 nM compound treatment ([1]; 10 nM) | Levels of phosphorylated AKT in treated cells (pAKT/actin) ([1]; 100 nM compound) | p-AKT relative to levels with 0.1 nM compound ([1]; 100 nM) | Normalized phosphorylated AKT (relative to actin) levels relative to 0.1 nM compound treatment ([1]; 100 nM)
−17 | −9 | −13 |  |  | O=C(Nc1ccc(F)nc1)[C@H]1[C@@H](O)CCN1c1nc2c(c(Nc3cc(C4CC4)[nH]n3)n1)CCC2 (single isomer, unassigned) [Compound 11a] | 1.83 | 1.0 | 1.0 | 1.55 | 0.8 | 0.8 | 1.43 | 0.8 | 0.8 | 1.58 | 0.9 | 0.9
 |  |  | 14 |  | COC1CC(C(=O)Nc2ccc(F)nc2)N(c2nc3c(c(Nc4cc(C5CC5)[nH]n4)n2)CCC3)C1 (single isomer, unassigned) [Compound 21a, 1-(4-(5-cyclopropyl-1H-pyrazol-3-ylamino)-6,7-dihydro-5H-cyclopenta[d]pyrimidin-2-yl)-N-(6-fluoropyridin-3-yl)-4-methoxypyrrolidine-2-carboxamide] |  |  |  |  |  |  |  |  |  |  |  | 
−2 | 4 | 1 |  |  | O=C(Nc1ccc(F)nc1)C1CCCN1c1nc2c(c(Nc3cc(C4CCCC4)[nH]n3)n1)CCCC2 (single isomer, unassigned) [Compound 15a, 1-(4-(5-cyclopentyl-1H-pyrazol-3-ylamino)-5,6,7,8-tetrahydroquinazolin-2-yl)-N-(6-fluoropyridin-3-yl)pyrrolidine-2-carboxamide] | 0.70 | 1.0 | 1.0 | 0.89 | 1.3 | 1.3 | 0.92 | 1.3 | 1.3 | 0.59 | 0.8 | 0.8
 |  |  | 41 |  | COC1CC(C(=O)Nc2ccc(F)nc2)N(c2nc3c(c(Nc4cc(C5CC5)[nH]n4)n2)CCC3)C1 (single isomer, unassigned) [Compound 21b, 1-(4-(5-cyclopropyl-1H-pyrazol-3-ylamino)-6,7-dihydro-5H-cyclopenta[d]pyrimidin-2-yl)-N-(6-fluoropyridin-3-yl)-4-methoxypyrrolidine-2-carboxamide] |  |  |  |  |  |  |  |  |  |  |  | 
